Entries after “also recorded” stand apart in the source; their conditions may differ. Like-named read-outs stand apart in the source and are kept apart here.
Tests used:
[1] = tested on: A549 cells; experiment: In vitro anti-proliferation (CellTiter-Glo, 72 hr), A549; type: cell-based, human
Method: (§1) Commercially available 8HQ and freshly synthesized G2-8HQ were prepared for in vitro anti-proliferative studies against the following cell lines with and without the presence of 10 μM Cu(+2): (1) A549: […]; (2) BT-549: epithelial cells from ductal tumor; (3) DU-145: human prostate cancer; (4) PANC-1: pancreatic cancer; (5) SU.86.86: a new adoptive pancreatic cell for immunotherapy studies; (6) RL: non-Hodgkin's lymphoma; (7) LnCAP, Prostate cancer cell line; (8) A431, a squamous cell carcinoma line; and (9) UACC-62 a malignant melanoma cell line.
(§2) With regard to the study protocol used, the objective was to conduct a study of the cytotoxicity of W1469 against several cancer cell lines. In the study protocol, preparations for the A549 (Lung) cell line screen are given as an example. The following materials were used: (1) FBS (2) RPMI-1640 medium supplemented with 10% FBS:’ and (3) A549 Cells. The four samples tested are referred to as Items 1-4 below and were placed at 4 °C upon arrival. These four samples were as follows: • Item 1: Tube A (W1469) (500 uM when FBS added) • Item 2: Tube B (W1469g) (1000 uM when FBS added) • Item 3: Tube C (W1469) • Item 4: Tube D (W1469g)
Items 1 and 2 are sterile ready for the addition of 1 ml of sterile FBS. Final concentrations after addition of 1 ml: 500 μM for Tube A and 1000 μM for Tube B. Items 3 and 4 are described further below. In the protocol, media containing 10% FBS and 20 μM CuCl2 are used in Tubes C and D only. A and B are serially diluted in media with 10% FBS and no added copper.
The protocol method proceeds as follows:
Seed 2, 96-well plates of A549 cells with 5,000 cells per well in a total volume of 50 μL per well. Leave overnight. See plate layout below for which wells to seed with 100 μL of media for media control. The following day, cells are exposed to compounds as described below.
For Items 1 & 2, to make the 500 μM and 1000 μM Stocks of samples 1 and 2 (W1469 and W1469g): Add 1 ml of sterile FBS to each Tube A and Tube B, swirl to mix.
To make appropriate 2× final dilutions of sample 1, Tube A (W1469), the following amounts are used: • 500 μM: 10 mL as supplied • 100 μM: 2 mL 500 μM Sample+8 mL media • 30 μM: 3 mL 100 μM Sample+7 mL media • 10 μM: 3 mL 30 μM Sample+6 mL media • 3 μM: 3 mL 10 μM Sample+7 mL media • 1 μM: 3 mL 3 μM Sample+6 mL media • 0.3 μM: 3 mL 1 μM Sample+7 mL media • 0.1 μM: 3 mL 0.3 μM Sample+6 mL media
To make appropriate 2× final dilutions of sample 2, Tube B (W1469g), the following amounts are used: • 1000 μM: 10 mL as supplied • 300 μM: 3 mL 1000 μM Sample+7 mL media • 100 μM: 3 mL 300 μM Sample+6 mL media • 30 μM: 3 mL 100 μM Sample+7 mL media • 10 μM: 3 mL 30 μM Sample+6 mL media • 3 μM: 3 mL 10 μM Sample+7 mL media • 1 μM: 3 mL 3 μM Sample+6 mL media • 0.3 μM: 3 mL 1 μM Sample+7 mL media
For Items 3 & 4, the following protocol was used to make 1000 uM Stocks of samples 3 and 4 (W1469 and W1469g): • 1: Dissolve 3.37 mg W1469 and excipient (Tube C) in 1 ml RPMI medium without added FBS and copper and swirl briefly until completely dissolved. Add 9 ml of RPMI media containing 10% FBS and 20 uM copper. Swirl to mix. Sterile filter the 10 ml with provided syringes and filters. This is now the 1000 μM stock solution W1469 ready for screening • 2: Dissolve 3.2 mg W1469g and excipient (Tube D) in 1 ml RPMI medium without added FBS and copper and swirl briefly until completely dissolved. […] This is now the 1000 μM stock solution W1469g ready for screening. […]

[2] = tested on: RL cells; experiment: In vitro anti-proliferation (CellTiter-Glo, 72 hr), RL; type: cell-based
Method: as §1, §2
(§3) Add 50 μL of above 2× stocks to appropriate wells to expose appropriate cells to the final dilutions of samples. Add 50 μL media to media and cell control wells and 50 μL media mix to vehicle control wells. Cells are exposed for 72 hr. Following a 72 hr exposure to Sample, perform a CTG assay on all remaining plates.
(§4) At the end of the 72 hr exposure period, remove plates for CellTiter-Glo assay from 37 °C, 5% CO2 incubator and place on the bench at room temperature for 30 mins. Add 100 μL CellTiter-Glo reagent, mix for 2 mins, followed by a further 10 min incubation at room temperature. Record luminescence. Tables showing the resulting plate layouts are included below/

[3] = tested on: LnCAP cells; experiment: In vitro anti-proliferation (CellTiter-Glo, 72 hr), LnCAP; type: cell-based
Method: as §1, §2, §3, §4
(§5) The other cancer cell lines tested gave similar results. […] Three additional cell lines were also studied and described more completely in Example 9 provided herein. These cell lines included cytotoxicity testing of WT1469 (G2-8HQ) against LnCAP a prostate cancer, A431 a squamous carcinoma cell line and UACC-62 a malignant melanoma cell line. All were complexed in situ with copper immediately prior to testing. The results from these additional cell lines and incorporated in Table 2 and Example 9.

[4] = tested on: A431 cells; experiment: In vitro anti-proliferation (CellTiter-Glo, 72 hr), A431; type: cell-based
Method: as §1, §2, §3, §4, §5

[5] = tested on: cancer cell lines; experiment: Anti-proliferative activity against cancer cell lines (overall statements); type: cell-based
Method: as §1, §2, §3, §4

[6] = 1 and 0.5 μM, presence of Cu^+2 ions, wide standard deviation
[7] = complexed with Cu in situ, * differences with or without excipient, suboptimal complexing, listed as W1469, read-out: IC50 (adjusted to MW of copper complex)

O=C(O)[C@H]1O[C@@H](Oc2ccc3cccc(O)c3n2)[C@H](O)[C@@H](O)[C@@H]1O [G2-8HQ, 8-Hydroxy-2-quinolinyl beta-D-glucopyranosiduronic acid]
cytotoxicity [1, 6]: in some percentage of the screens all the cancer cells were killed at these concentrations
improvement of cytotoxicity in presence of copper ([1]; A549, 10 or 20 μM Cu^+2 vs −Cu): 8-18 fold
IC50 ([1]; Homo sapiens, A549, 72 h, −Cu, 72 hr): > 500 µM
cytotoxicity [2, 6]: in a percentage of cases, all of the cancer cells were killed at concentrations between at 1 and 0.5 μM; also recorded: in some % of the screens all the cancer cells were killed at these concentrations
IC50 ([2]; +Cu (10 μM), 72 hr, G2-8HQ values based on MW of apo form (337), read-out: IC50): 0.47 µM
IC50 ([2]; Homo sapiens, RL, 72 h, +Cu (10 μM), 72 hr, G2-8HQ values based on MW of apo form (337), read-out: IC50): 0.468 µM
IC50 ([2]; Homo sapiens, RL, 72 h, −Cu, 72 hr, read-out: IC50): > 500 µM
IC50 ([2]; Homo sapiens, RL, complexed with Cu, multiplied by 337/776=0.43, read-out: IC50 (adjusted to MW of copper complex)): 0.2 µM
IC50 ([3]; +Cu, complexed in situ with copper immediately prior to testing, apo MW (337), read-out: IC50): 154 µM
IC50 ([3]; Homo sapiens, LNCaP, +Cu, complexed in situ with copper immediately prior to testing, apo MW (337), read-out: IC50): 109 µM
IC50 ([3]; Homo sapiens, LNCaP, complexed with Cu in situ, * differences with or without excipient, suboptimal complexing, read-out: IC50 (adjusted to MW of copper complex)): 46.9 µM
IC50 [3, 7]: 66.2 µM
IC50 ([4]; +Cu, complexed in situ with copper immediately prior to testing, not based on apo MW, read-out: IC50): 85 µM
IC50 ([4]; Homo sapiens, A-431, +Cu, complexed in situ with copper immediately prior to testing, not based on apo MW, read-out: IC50): 64 µM
IC50 ([4]; Homo sapiens, A-431, complexed with Cu in situ, * differences with or without excipient, suboptimal complexing, read-out: IC50 (adjusted to MW of copper complex)): 63.2 µM
IC50 [4, 7]: 83.4 µM
cytotoxicity ([5]; absence of copper): absence of cytotoxicity (no measurable IC50 in standard drug concentration ranges)
anticancer activity ([5]; all cell lines tested): powerful anticancer activity against all cell lines tested
Active w/o Cu (cancer) ([5]; comparison Table 5): No
IC50 ([5]; without copper, six of the nine carcinoma cell lines): > 500 µM

— patent US20260345654A1, “2,8-DIHYDROXYQUINOLINE GLUCURONIDE DERIVATIVES WITH ENHANCED PROPERTIES FOR USE AS ANTICANCER, ANTIVIRAL, ANTIMICROBIAL, AND OTHER THERAPEUTIC APPLICATIONS” (priority 2023, published 2026)
